Data from PubChem BioAssay (NCI).
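These data come from cells grown in 96-well plates and exposed to compound for 48 hours at five concentrations. TGI denotes the concentration required for complete inhibition of growth.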

Experiments:
Assay in all cases: NCI anticancer screen, dose series, 48 h
M14 melanoma = tested on: M14 melanoma
A498 renal = tested on: A498 renal
K-562 leukemia = tested on: K-562 leukemia
HCC-2998 colon = tested on: HCC-2998 colon
SN12C renal = tested on: SN12C renal
HS 578T breast = tested on: HS 578T breast
NCI/ADR-RES ovarian = tested on: NCI/ADR-RES ovarian
LOX IMVI melanoma = tested on: LOX IMVI melanoma
MDA-MB-231 breast = tested on: MDA-MB-231 breast
CAKI-1 renal = tested on: CAKI-1 renal
HCT-15 colon = tested on: HCT-15 colon

Q: What does the source list for `CC(C)=CCc1c2c(c(O)c3c(=O)c4c(oc13)-c1ccc(O)cc1OC4C=C(C)C)C=CC(C)(C)O2` (stereo unspecified)?
A: TGI (M14 melanoma): 35.4 µM; TGI (A498 renal): 34.9 µM; TGI (K-562 leukemia): 25.9 µM; TGI (HCC-2998 colon): 11 µM; TGI (SN12C renal): 17 µM; TGI (HS 578T breast): 17.2 µM; TGI (NCI/ADR-RES ovarian): 34.6 µM; TGI (LOX IMVI melanoma): 23.8 µM; TGI (MDA-MB-231 breast): 28 µM; TGI (CAKI-1 renal): 34.4 µM; TGI (HCT-15 colon): 24.8 µM

Q: With `Cc1cc2occ(S(=O)(=O)NC(=O)Nc3ccc(Cl)cc3)c(=O)c2c(=O)o1` as the compound, how does the TGI (M14 melanoma) read?
A: > 100 µM

Q: And the TGI (A498 renal)?
A: > 100 µM

Q: What about the TGI (K-562 leukemia) of the same compound?
A: > 100 µM

Q: What about the TGI (HCC-2998 colon) of the same compound?
A: > 100 µM

Q: What about the TGI (SN12C renal) of the same compound?
A: > 100 µM

Q: What about the TGI (HS 578T breast) of the same compound?
A: > 100 µM

Q: What about the TGI (NCI/ADR-RES ovarian) of the same compound?
A: > 100 µM

Q: And the TGI (LOX IMVI melanoma)?
A: > 100 µM

Q: And the TGI (MDA-MB-231 breast)?
A: > 100 µM

Q: And the TGI (CAKI-1 renal)?
A: > 100 µM

Q: What about the TGI (HCT-15 colon) of the same compound?
A: > 100 µM

Q: For `COc1cc2c(cc1OC)C(=O)N(c1ccc(OCCN3CCCC3)cc1)C2=O`, which TGI (M14 melanoma) is on record?
A: > 100 µM

Q: And the TGI (A498 renal)?
A: > 100 µM

Q: What about the TGI (K-562 leukemia) of the same compound?
A: > 100 µM

Q: What about the TGI (HCC-2998 colon) of the same compound?
A: > 100 µM

Q: What about the TGI (SN12C renal) of the same compound?
A: > 100 µM

Q: And the TGI (HS 578T breast)?
A: > 100 µM

Q: And the TGI (NCI/ADR-RES ovarian)?
A: > 100 µM

Q: And the TGI (LOX IMVI melanoma)?
A: > 100 µM

Q: What about the TGI (MDA-MB-231 breast) of the same compound?
A: > 100 µM

Q: And the TGI (CAKI-1 renal)?
A: > 100 µM

Q: And the TGI (HCT-15 colon)?
A: > 100 µM

Q: For `COC(=O)c1ccccc1C1CN=NC12Cc1c(C)ccc(C)c1C2=O` (stereo unspecified), which TGI (M14 melanoma) is on record?
A: > 100 µM

Q: And the TGI (A498 renal)?
A: > 100 µM

Q: And the TGI (K-562 leukemia)?
A: > 100 µM

Q: What about the TGI (HCC-2998 colon) of the same compound?
A: > 100 µM

Q: What about the TGI (SN12C renal) of the same compound?
A: > 100 µM

Q: What about the TGI (HS 578T breast) of the same compound?
A: > 100 µM

Q: And the TGI (NCI/ADR-RES ovarian)?
A: > 100 µM

Q: What about the TGI (LOX IMVI melanoma) of the same compound?
A: > 100 µM

Q: And the TGI (MDA-MB-231 breast)?
A: > 100 µM

Q: And the TGI (CAKI-1 renal)?
A: > 100 µM

Q: What about the TGI (HCT-15 colon) of the same compound?
A: > 100 µM

Q: What does the source list for `C=CCN1C(=O)CC(=O)N(NC2=NNC3(C(=O)N2)c2ccccc2-c2ccccc23)C1=S`?
A: TGI (M14 melanoma): > 100 µM; TGI (A498 renal): > 100 µM; TGI (K-562 leukemia): > 100 µM; TGI (HCC-2998 colon): > 100 µM; TGI (SN12C renal): > 100 µM; TGI (HS 578T breast): 66.1 µM; TGI (NCI/ADR-RES ovarian): > 100 µM; TGI (LOX IMVI melanoma): > 100 µM; TGI (MDA-MB-231 breast): > 100 µM; TGI (CAKI-1 renal): > 100 µM; TGI (HCT-15 colon): > 100 µM

Q: `COc1ccc(CC[N+]2(C)COc3cc4oc(=O)cc(C)c4cc3C2)cc1OC` (stereo unspecified) was tested. Which TGI (M14 melanoma) did it give?
A: > 100 µM

Q: And the TGI (A498 renal)?
A: > 100 µM

Q: And the TGI (K-562 leukemia)?
A: > 100 µM

Q: What about the TGI (HCC-2998 colon) of the same compound?
A: > 100 µM

Q: What about the TGI (SN12C renal) of the same compound?
A: > 100 µM

Q: What about the TGI (HS 578T breast) of the same compound?
A: > 100 µM

Q: What about the TGI (NCI/ADR-RES ovarian) of the same compound?
A: > 100 µM

Q: What about the TGI (LOX IMVI melanoma) of the same compound?
A: > 100 µM

Q: And the TGI (MDA-MB-231 breast)?
A: > 100 µM

Q: What about the TGI (CAKI-1 renal) of the same compound?
A: > 100 µM

Q: And the TGI (HCT-15 colon)?
A: > 100 µM
